How the values were obtained:
[1] = system: PPC1; test: Cytotoxicity in vitro (MTT), prostate cancer cell line PPC1; type: cell-based, human
Experimental: (§1) In general, Anti-bradykinin activity was determined by the classical guinea pig ileum assay and on Chinese hamster ovary (CHO) cells expressing cloned human bradykinin B2 receptors. Anti-tumor activity was determined on cultured human cancer cell lines using the standard tetrazolium (MTT) assay.
(§2) Cell growth and survival were measured by a rapid colorimetric assay based on the tetrazolium salt MTT (3-(4,5-dimethylthiazol-2-yl)-2,5-diphenyl tetrazolium bromide) (Mosmann, J Immunol. Methods 65: 55–63, 1983, with minor modifications). Briefly, 1,000 normal lung fibroblasts or normal epithelial BEAS-2B cells, 1,000 or 5,000 viable non-SCLC cells or 10,000 viable SCLC cells were plated in 100 μL of growth medium in 96-well flat-bottomed microtiter plates. Cells were incubated overnight to allow recovery. Compounds to be tested were added to the cells in triplicate in a range of concentrations and the cells were incubated at 37° C., 5% CO2, with 100% humidity. Control cells were treated in the same way without antagonists. […] Plates were incubated for 4 days, allowing sufficient time for cell replication and compound-induced cell death to occur. On day 5, 25 μL of a 2 mg/mL solution of MTT (Sigma) dissolved in RMPI-1640was added to each well. The plate was incubated for 4 h at 37° C. The supernate was removed and the blue formazan complex was dissolved by adding 100 μL of 0.02 N HCl in 75% isopropanol to all wells. Absorbance was immediately determined using a scanning multiwell plate reader. B9870 caused 50% cell death at a concentration of 0.15 μM under these conditions.

[2] = system: SCLC strain SHP-77; test: Inhibition of tumor growth in vivo in nude mice, SCLC strain SHP-77; conditions: for inhibition of growth in vivo of SCLC strain SHP-77: figure legends, nude mice, i.p. daily; for inhibition of growth of the SCLC line SHP-77: dose of 5 mg/kg/day
Experimental: Representative peptide and non-peptide compounds having high in vitro cytotoxic activity were tested against implanted tumors in vivo. Athymic nude mice were implanted subcutaneously with either single cell suspensions (2 million SCLC cells or 1 million NSCLC cells) or with small fragments (3×3 mm) of tumors minced from previously grown nude mouse heterotransplants. On the seventh day after tumor implantation groups of 5 mice bearing implants were injected intraperitoneally daily with the compounds being tested at 1, 5, or 10 mg/kg/day; control animals were injected with an equal volume of isotonic saline. Tumor size was measured with a caliper three times per week. Tumor volume was calculated by the formula: Volume (cc)=π×(length)×(width)^2/6

[3] = system: TSU; test: Cytotoxicity in vitro (MTT), prostate cancer cell line TSU; type: cell-based, human
Experimental: as §1, §2

[4] = system: LNCa; test: Cytotoxicity in vitro (MTT), prostate cancer cell line LNCa; type: cell-based, human
Experimental: as §1, §2

[5] = system: bradykinin response of isolated guinea pig ileum; test: Anti-bradykinin activity on isolated guinea pig ileum; conditions: for GPI: pA2 for bradykinin antagonist activity on isolated guinea pig ileum: higher numbers indicate higher potency
Procedure, shortened: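 Bradykinin concentration-effect curves were run in the absence and presence of compound. Tissue: 25 mm terminal ileum from male Hartley guinea pigs fasted overnight, held at 1 g tension in O2/CO2-bubbled Krebs' solution after 1 h equilibration.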

[6] = system: PC-3; test: Cytotoxicity in vitro (MTT), prostate cancer cell line PC-3; type: cell-based, human
Experimental: as §1, §2

[7] = system: DU14; test: Cytotoxicity in vitro (MTT), prostate cancer cell line DU14; type: cell-based, human
Experimental: as §1, §2

[8] = system: SCLC strain SHP-77; test: Colorimetric tetrazolium (MTT) assay for cell survival, SCLC strain SHP-77; type: cell-based, human; conditions: for ED50 for cytotoxic activity, SCLC SHP-77: Table 5, included for comparison
Procedure, shortened: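 MTT assay: cells seeded overnight, treated in triplicate across a concentration range for 4 days at 37 °C, 5% CO2. On day 5, MTT was added for 4 h; formazan was dissolved in acidified isopropanol and absorbance read.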

[9] = target: T1, cloned human bradykinin B2 receptors (Homo sapiens, UniProt P30411); test: Anti-bradykinin activity on cloned human B2 receptors (CHO cells, Cytosensor microphysiometer); type: cell-based; conditions: for HUMAN: pA2 for bradykinin antagonist potency on cloned human B2 receptors: higher numbers indicate higher potency
T1 sequence (P30411 1-391): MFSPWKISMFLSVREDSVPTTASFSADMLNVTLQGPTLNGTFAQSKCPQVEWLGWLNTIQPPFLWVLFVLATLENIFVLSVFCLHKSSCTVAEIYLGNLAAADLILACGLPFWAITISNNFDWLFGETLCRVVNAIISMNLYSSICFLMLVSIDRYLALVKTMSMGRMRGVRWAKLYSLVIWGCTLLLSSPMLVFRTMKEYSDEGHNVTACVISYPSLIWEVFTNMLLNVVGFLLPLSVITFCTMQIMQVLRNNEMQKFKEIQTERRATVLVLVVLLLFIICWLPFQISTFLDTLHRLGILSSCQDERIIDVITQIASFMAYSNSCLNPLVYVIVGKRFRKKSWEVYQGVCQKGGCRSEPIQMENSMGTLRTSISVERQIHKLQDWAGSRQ
Experimental: as §1
Chinese hamster ovary cells containing cloned and expressed human bradykinin B2 receptors were grown in cell cups of the Cytosensor microphysiometer in Ham's F-12 medium supplemented with sodium pyruvate and 10% FBS (Gibco 11765-054). For assay the cells were transferred to Ham's F-12 without bicarbonate or serum (Gibco 21700-075) and placed in the Cytosensor. Concentration-response curves were constructed to bradykinin in the presence or absence of new compounds.

[10] = isolated guinea pig ileum, pD2 of bradykinin is 7.4
[11] = cloned human B2 receptors, pD2 for bradykinin is 11

Row | Compound | HUMAN: pA2 for bradykinin antagonist potency on cloned human B2 receptors ([9]; Table 1) | GPI: pA2 for bradykinin antagonist activity on isolated guinea pig ileum ([5]; Table 1) | MTT: ED50 for killing of SCLC strain SHP-77 in vitro ([8]; Table 1, SHP-77, MTT, 4 days) | other results
1 | CC1(C)CC(NC(=O)[C@H](Cc2ccc(OCc3c(Cl)cccc3Cl)cc2)NC(=O)/C=C/c2c(F)c(F)c(F)c(F)c2F)CC(C)(C)N1 [M570, F5c-OC2Y-Atmp] |  |  |  | ED50 for cytotoxic activity, PPC1 [1]: 3.0 µM; inhibition of growth in vivo of SCLC strain SHP-77 [2]: inhibition of growth; ED50 for cytotoxic activity, TSU [3]: 2.8 µM; ED50 for cytotoxic activity, LNCa [4]: 3.0 µM; GPI: pA2 for bradykinin antagonist activity on isolated guinea pig ileum [5, 10]: 5.6; ED50 for cytotoxic activity, PC-3 [6]: 1.6 µM; ED50 for cytotoxic activity, DU14 [7]: 1.2 µM; MTT: ED50 for killing of SCLC strain SHP-77 in vitro ([8]; SCLC strain SHP-77 in vitro): 1.8 µM; ED50 for cytotoxic activity, SCLC SHP-77 [8]: 1.8 µM
2 | COC(=O)CCCCCCCCC(=O)Nc1ccc(C=CC(=O)NC(C(=O)NC2CC(C)(C)NC(C)(C)C2)C2Cc3ccccc3C2)cc1 (stereo not shown) [M586-A] |  |  |  | HUMAN: pA2 for bradykinin antagonist potency on cloned human B2 receptors [9, 11]: 12; GPI: pA2 for bradykinin antagonist activity on isolated guinea pig ileum [5, 10]: 5.3; MTT: ED50 for killing of SCLC strain SHP-77 in vitro ([8]; SCLC strain SHP-77 in vitro): 15 µM
3 | CN(C(=O)C=Cc1c(F)c(F)c(F)c(F)c1F)C(Cc1ccc(OCc2c(Cl)cccc2Cl)cc1)C(=O)NC1CC(C)(C)NC(C)(C)C1 (stereo not shown) [M594] |  |  |  | HUMAN: pA2 for bradykinin antagonist potency on cloned human B2 receptors [9, 11]: 8; GPI: pA2 for bradykinin antagonist activity on isolated guinea pig ileum [5, 10]: 5.0; MTT: ED50 for killing of SCLC strain SHP-77 in vitro ([8]; SCLC strain SHP-77 in vitro): 3.7 µM
4 | O=C(C=Cc1ccc(NC(=O)CCCCCCCCCCC(=O)Nc2ccc(C=CC(=O)NC(Cc3ccc4ccccc4c3)C(=O)NC3CCNCC3)cc2)cc1)NC(Cc1ccc2ccccc2c1)C(=O)NC1CCNCC1 (stereo not shown) [M606] |  |  |  | HUMAN: pA2 for bradykinin antagonist potency on cloned human B2 receptors [9, 11]: 10; GPI: pA2 for bradykinin antagonist activity on isolated guinea pig ileum [5, 10]: 5.0; MTT: ED50 for killing of SCLC strain SHP-77 in vitro ([8]; SCLC strain SHP-77 in vitro): 30 µM
5 | Atmp-Igl-Pac-α-Sbl-Lys-B9430 [M590] | Inact | 7.5 | 4.5 µM | ED50 for cytotoxic activity, PPC1 [1]: 12 µM; ED50 for cytotoxic activity, TSU [3]: 7.0 µM; ED50 for cytotoxic activity, LNCa [4]: 7.0 µM; ED50 for cytotoxic activity, PC-3 [6]: 6.3 µM; ED50 for cytotoxic activity, DU14 [7]: 0.01 µM; ED50 for cytotoxic activity, SCLC SHP-77 [8]: 4.5 µM
6 | DArg-Arg-Pro-Hyp-Gly-Igl-Ser-DIgl-Oic-Arg [B9430, reference compound] |  | 8.2 | 120 µM | pA2 (antagonist) on cloned human B2 receptors ([9]; text of Example XVIII): 10.5; inhibition of growth in vivo of SCLC strain SHP-77 [2]: inhibition of growth; pA2 (antagonist) on guinea pig ileum ([5]; text of Example XVII): 7.9
7 | DDD-(Arg-DIgl-Oic-Arg)2 [M226] | Inact | 5.7 | 35 µM | 
8 | DDD-(DArg-2Nal-Arg-NH2)2 [M510] | 11 | Inact | 8 µM | 
9 | DDD-(DArg-Arg-Aud-Pac-2Nal-Arg)2 [M516] | Ag | 0 | 1.4 µM | 
10 | DDD-(DArg-F5F-Arg)2 [M822] |  | Mixed | 25 µM | inhibition of growth in vivo of SCLC strain SHP-77 [2]: inhibition of growth
11 | DDD-(DArg-Igl-Arg-Matp)2 [M638] |  |  |  | inhibition of growth in vivo of SCLC strain SHP-77 [2]: inhibition of growth; GPI: pA2 for bradykinin antagonist activity on isolated guinea pig ileum [5, 10]: Inact; MTT: ED50 for killing of SCLC strain SHP-77 in vitro ([8]; SCLC strain SHP-77 in vitro): 0.6 µM
12 | DDD-(Lys-DArg-Arg-Pro-Hyp-Gly-Igl-Ser-DIgl-Oic-Arg)2 [B10054] |  | 7.1 | 0.3 µM | inhibition of growth of the SCLC line SHP-77 [2]: marked inhibition of growth; inhibition of growth in vivo of SCLC strain SHP-77 [2]: inhibition of growth
13 | DDD-(Lys-Pac-Gly-mABz-2Nal-NH2)2 [M494] | Inact | 5.1 | 33 µM | 
14 | DDD-(Pac-2Nal-Arg)2 [M484] | Inact | Inact | 25 µM | 
15 | DDD-(Pac-2Nal-Arg-NH2)2 [M498] | Inact | 4.9 | 24 µM | 
16 | DDD-(pABz-2Nal-Arg)2 [M400] | 11.5 | 5.1 | 22 µM | 
17 | DDD-(pABz-2Nal-Arg-NH2)2 [M500] | 11.4 | 0 | 40 µM | 
18 | F5c-2Nal-Arg [M446] | 9 | 4.7 | 60 µM | 
19 | F5c-2Nal-Arg-NH2 [M450] | Inact | 4.9 | 26 µM | 
20 | F5c-OBS-Arg [M520] | 7 | 6.1 | Inact | 
21 | F5c-OBT-Arg [M550] | Ag | Inact | 80 µM | 
22 | F5c-OC2Y-Arg [M512] | 11 | 5.7 | 70 µM | 
23 | F5c-hPhe-Arg [M420] | 10.9 | 7.0 | 60 µM | 
24 | SUIM-(DArg-Arg-Pro-Hyp-Gly-Igl-Ser-DIgl-Oic-Arg) [B9870-2, reference compound] |  | 8.4 | 0.15 µM | ED50 for cytotoxic activity, PPC1 [1]: 4.3 µM; inhibition of growth of the SCLC line SHP-77 [2]: marked inhibition of growth; ED50 for cytotoxic activity, TSU [3]: 6.5 µM; ED50 for cytotoxic activity, LNCa [4]: 3.7 µM; ED50 for cytotoxic activity, PC-3 [6]: 3.2 µM; ED50 for cytotoxic activity, DU14 [7]: 0.08 µM; EC50 ([8]; MTT assay, text of Example XIX, read-out: concentration causing 50% cell death): 0.15 µM; ED50 for cytotoxic activity, SCLC SHP-77 [8]: 0.15 µM
25 | α-DDD-(Lys-B9430-OMe)2 [M600] | Ag | 6.4 | 1.2 µM | 
